Assay results as given in ChEMBL document CHEMBL1201862, “PubChem BioAssay data set” (2004).
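96-well plates; 48 h exposure; 5 concentrations. Endpoints by linear interpolation between flanking doses. Not reached: highest tested concentration assigned. Abbreviation: GI50, concentration required for 50% inhibition of growth.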 Activity calls are given as the source filed them. Rule as the data show it: active = GI50 up to about 1.1 µM and inactive = higher.

Legend:
Assay in all cases: growth of human tumour cells (NCI), 48 h
[1] = system: OVCAR-5
[2] = system: NCI-H226
[3] = system: M14
[4] = system: SW-620
[5] = system: HOP-92
[6] = system: HCC 2998
[7] = system: A498
[8] = system: RXF 393
[9] = system: DMS-114
[10] = system: CAKI-1
[11] = system: A549
[12] = system: U-251
[13] = system: EKVX
[14] = system: HCT-15
[15] = system: NCI-H522
[16] = system: SNB-78
[17] = system: HT-29
[18] = system: KM-20L2
[19] = system: UACC-257
[20] = system: TK-10
[21] = system: M19-MEL
[22] = system: SK-MEL-28
[23] = system: CCRF-CEM
[24] = system: LXFL 529
[25] = system: RPMI-8226
[26] = system: LOX IMVI
[27] = system: DLD-1
[28] = system: 786-0
[29] = system: UO-31
[30] = system: IGROV-1
[31] = system: SF-539
[32] = system: SK-MEL-2
[33] = system: NCI-H23
[34] = system: NCI-H460
[35] = system: HCT-116
[36] = system: HL-60
[37] = system: SNB-75
[38] = system: MOLT-4
[39] = system: K562
[40] = system: SNB-19
[41] = system: SF-295
[42] = system: SN12C
[43] = system: SK-OV-3
[44] = system: HOP-62
[45] = system: ACHN
[46] = system: SF-268
[47] = system: DMS-273
[48] = system: COLO 205
[49] = system: OVCAR-8
[50] = system: KM12
[51] = system: Malme-3M
[52] = system: OVCAR-3
[53] = system: SK-MEL-5
[54] = system: UACC-62
[55] = system: OVCAR-4

Structure (SMILES): CCOc1ccc(-c2oc(/C=N/NS(=O)(=O)c3ccc(C)cc3)c([N+](=O)[O-])c2-c2ccc(OCC)cc2)cc1
- GI50 [1]: 11.5 µM (inactive)
- GI50 [2]: 14.4 µM (inactive)
- GI50 [3]: 12.4 µM (inactive)
- GI50 [4]: 2.61 µM (inactive)
- GI50 [5]: 8.85 µM (inactive)
- GI50 [6]: 14.4 µM (inactive)
- GI50 [7]: 14.9 µM (inactive)
- GI50 [8]: 12.3 µM (inactive)
- GI50 [9]: 3.21 µM (inactive)
- GI50 [10]: 10.3 µM (inactive)
- GI50 [11]: 19.4 µM (inactive)
- GI50 [12]: 8.22 µM (inactive)
- GI50 [13]: 26.1 µM (inactive)
- GI50 [14]: 5.65 µM
- GI50 [15]: 5.96 µM (inactive)
- GI50 [16]: 9.73 µM (inactive)
- GI50 [17]: 5.19 µM (inactive)
- GI50 [18]: 11.2 µM (inactive)
- GI50 [19]: 16 µM (inactive)
- GI50 [20]: 22 µM (inactive)
- GI50 [21]: 3.72 µM (inactive)
- GI50 [22]: 12.4 µM (inactive)
- GI50 [23]: 2.54 µM (inactive)
- GI50 [24]: 9.93 µM (inactive)
- GI50 [25]: 2.58 µM (inactive)
- GI50 [26]: 3.46 µM (inactive)
- GI50 [27]: 4.98 µM (inactive)
- GI50 [28]: 12.4 µM (inactive)
- GI50 [29]: 12.7 µM (inactive)
- GI50 [30]: 14.1 µM (inactive)
- GI50 [31]: 16.1 µM (inactive)
- GI50 [32]: 19.9 µM (inactive)
- GI50 [33]: 13.5 µM (inactive)
- GI50 [34]: 13.2 µM (inactive)
- GI50 [35]: 2.03 µM (inactive)
- GI50 [36]: 4.03 µM (inactive)
- GI50 [37]: 4.19 µM (inactive)
- GI50 [38]: 2.65 µM (inactive)
- GI50 [39]: 3.79 µM (inactive)
- GI50 [40]: 15 µM (inactive)
- GI50 [41]: 14.4 µM (inactive)
- GI50 [42]: 12.8 µM (inactive)
- GI50 [43]: 15.4 µM (inactive)
- GI50 [44]: 21.3 µM (inactive)
- GI50 [45]: 10.9 µM (inactive)
- GI50 [46]: 17.9 µM (inactive)
- GI50 [47]: 8.41 µM (inactive)
- GI50 [48]: 17.5 µM (inactive)
- GI50 [49]: 15.6 µM (inactive)
- GI50 [50]: 8.81 µM (inactive)
- GI50 [51]: 19.1 µM (inactive)
- GI50 [52]: 15.6 µM (inactive)
- GI50 [53]: 6.76 µM (inactive)
- GI50 [54]: 7.11 µM (inactive)
- GI50 [55]: 11.3 µM (inactive)

Structure (SMILES): O=C(CC1=Nc2nnc(-c3nnc4n3C(=O)C(CC(=O)C3CC3)=N4)n2C1=O)C1CC1
- GI50 [1]: > 100 µM (inactive)
- GI50 [2]: > 100 µM (inactive)
- GI50 [3]: > 100 µM (inactive)
- GI50 [4]: > 100 µM (inactive)
- GI50 [5]: > 100 µM (inactive)
- GI50 [6]: > 100 µM (inactive)
- GI50 [7]: > 100 µM (inactive)
- GI50 [8]: > 100 µM (inactive)
- GI50 [9]: > 100 µM (inactive)
- GI50 [10]: > 100 µM (inactive)
- GI50 [11]: > 100 µM (inactive)
- GI50 [12]: > 100 µM (inactive)
- GI50 [14]: > 100 µM
- GI50 [15]: > 100 µM (inactive)
- GI50 [16]: > 100 µM (inactive)
- GI50 [17]: > 100 µM (inactive)
- GI50 [18]: > 100 µM (inactive)
- GI50 [19]: > 100 µM (inactive)
- GI50 [20]: > 100 µM (inactive)
- GI50 [21]: > 100 µM (inactive)
- GI50 [22]: > 100 µM (inactive)
- GI50 [23]: > 100 µM (inactive)
- GI50 [24]: > 100 µM (inactive)
- GI50 [25]: > 100 µM (inactive)
- GI50 [26]: > 100 µM (inactive)
- GI50 [27]: > 100 µM (inactive)
- GI50 [28]: > 100 µM (inactive)
- GI50 [29]: > 100 µM (inactive)
- GI50 [30]: > 100 µM (inactive)
- GI50 [31]: > 100 µM (inactive)
- GI50 [32]: > 100 µM (inactive)
- GI50 [33]: > 100 µM (inactive)
- GI50 [34]: > 100 µM (inactive)
- GI50 [35]: > 100 µM (inactive)
- GI50 [36]: > 100 µM (inactive)
- GI50 [37]: > 100 µM (inactive)
- GI50 [38]: > 100 µM (inactive)
- GI50 [39]: > 100 µM (inactive)
- GI50 [40]: > 100 µM (inactive)
- GI50 [41]: > 100 µM (inactive)
- GI50 [42]: > 100 µM (inactive)
- GI50 [43]: > 100 µM (inactive)
- GI50 [44]: > 100 µM (inactive)
- GI50 [45]: > 100 µM (inactive)
- GI50 [46]: > 100 µM (inactive)
- GI50 [47]: > 100 µM (inactive)
- GI50 [48]: > 100 µM (inactive)
- GI50 [50]: > 100 µM (inactive)
- GI50 [51]: > 100 µM (inactive)
- GI50 [52]: > 100 µM (inactive)
- GI50 [53]: > 100 µM (inactive)
- GI50 [54]: > 100 µM (inactive)
- GI50 [55]: > 100 µM (inactive)
